Data reported in patent publication US20220235011A1, “PHTHALAZINONE COMPOUNDS AND USE THEREOF” (ST PHARM CO., LTD., priority 2019, published 2022).
Structures can show the parent of a compound that is named as a salt.

The molecules below were run against T1, Sirt6 (Homo sapiens, UniProt Q8N6T7) (assay: Measurement of Sirt6 Activity (CycLex Sirt6 Deacetylase Fluorometric Assay Kit)). Details: compound at 10 μM; fluorescence relative to the group without compound treatment (positive control group).
T1 construct: purchased CycLex CY-1156V2
T1 sequence (Q8N6T7 whole entry): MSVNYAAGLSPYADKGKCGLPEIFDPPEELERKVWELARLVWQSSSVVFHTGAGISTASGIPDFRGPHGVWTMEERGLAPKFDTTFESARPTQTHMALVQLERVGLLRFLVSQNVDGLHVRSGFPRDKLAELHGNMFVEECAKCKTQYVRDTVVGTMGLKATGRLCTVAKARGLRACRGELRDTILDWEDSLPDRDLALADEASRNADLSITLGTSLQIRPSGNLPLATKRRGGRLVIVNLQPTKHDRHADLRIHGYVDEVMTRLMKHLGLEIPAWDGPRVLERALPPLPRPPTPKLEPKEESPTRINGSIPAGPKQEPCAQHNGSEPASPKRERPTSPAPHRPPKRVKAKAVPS
Format: biochemical
Summary of the method: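 Recombinant Sirt6 with fluoro-labelled acetyl-lysine peptide, NAD and lysylendopeptidase developer, compound added from 10× stock in PBS; 1 h at room temperature. Fluorescence read at ex 490/em 530 nm; activation expressed as fluorescence ratio relative to enzyme without compound.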

| Sirt6 Activity (% activity, 10 μM) | Structure (SMILES) |
| --- | --- |
| 303.80 % activity | CCS(=O)(=O)N[C@@H]1CCCCN(c2nn(-c3ccc(F)cc3F)c(=O)c3ccccc23)C1 [Example 187, (R)—N-(1-(3-(2,4-Difluorophenyl)-4-oxo-3,4-dihydrophthalazin-1-yl)azepan-3-yl)ethanesulfonamide] |
| 358.40 % activity | CC(C)(C(N)=O)c1cccc(-c2nn(-c3ccc(F)cc3F)c(=O)c3ccccc23)c1 [Example 188, 2-(3-(3-(2,4-Difluorophenyl)-4-oxo-3,4-dihydrophthalazin-1-yl)phenyl)-2-methylpropanamide] |
| 273.70 % activity | CN[C@@H]1CCCCN(c2nn(-c3ccc(F)cc3F)c(=O)c3ccccc23)C1 [Example 189, (R)-2-(2,4-Difluorophenyl)-4-(3-(methylamino)azepan-1-yl)phthalazin-1(2H)-one-hydrochloride] |
| 332.60 % activity | O=c1c2ccccc2c(N2CCCCC(O)C2)nn1-c1ccc(F)cc1F (stereo not drawn) [Example 190, 2-(2,4-Difluorophenyl)-4-(3-hydroxyazepan-1-yl)phthalazin-1(2H)-one] |
| 312.70 % activity | Cl.O=c1c2ccccc2c(N2CCCC[C@@H](NCCO)C2)nn1-c1ccc(F)cc1F [Example 191, (R)-2-(2,4-Difluorophenyl)-4-(3-((2-hydroxyethyl)amino)azepan-1-yl)phthalazin-1(2H)-one-hydro Chloride] |
| 286.60 % activity | CC(=O)N[C@@H]1CCCCN(c2nn(-c3ccc(F)cc3F)c(=O)c3ccccc23)C1 [Example 192, (R)—N-(1-(3-(2,4-Difluorophenyl)-4-oxo-3,4-dihydrophthalazin-1-yl)azepan-3-yl)acetamide] |
| 206.10 % activity | O=C1CCCCN(c2nn(-c3ccc(F)cc3F)c(=O)c3ccccc23)C1 [Example 193, 2-(2,4-Difluorophenyl)-4-(3-oxoazepan-1-yl)phthalazin-1 (2H)-one] |
| 350.20 % activity | CC(C)(C(=O)O)c1cccc(-c2nn(-c3ccc(Cl)cc3)c(=O)c3ccccc23)c1 [Example 194, 2-(3-(3-(4-Chlorophenyl)-4-oxo-3,4-dihydrophthalazin-1-yl)phenyl)-2-methylpropanoic Acid] |
| 287.30 % activity | O=C(O)C1(c2cccc(-c3nn(-c4ccc(Cl)cc4)c(=O)c4ccccc34)c2)CC1 [Example 195, 1-(3-(3-(4-Chlorophenyl)-4-oxo-3,4-dihydrophthalazin-1-yl)phenyl)cyclopropan-1-carboxylic Acid] |
| 135.10 % activity | O=c1c2ccccc2c(N2CCCCC(O)C2)nn1-c1ccc(Cl)cc1 (stereo not drawn) [Example 196, 2-(4-Chlorophenyl)-4-(3-hydroxyazepan-1-yl)phthalazin-1(2H)-one] |
| 153.60 % activity | CC(C)(C(N)=O)c1cccc(-c2nn(-c3ccc(Cl)cc3)c(=O)c3ccccc23)c1 [Example 197, 2-(3-(3-(4-Chlorophenyl)-4-oxo-3,4-dihydrophthalazin-1-yl)phenyl)-2-methylpropanamide] |
| 225.40 % activity | NC(=O)C1(c2cccc(-c3nn(-c4ccc(Cl)cc4)c(=O)c4ccccc34)c2)CC1 [Example 198, 1-(3-(3-(4-Chlorophenyl)-4-oxo-3,4-dihydrophthalazin-1-yl)phenyl)cyclopropan-1-carboxyamide] |
| 149.41 % activity | O=C(O)Cc1cccc(-c2nn(-c3ccc(F)cc3F)c(=O)c3ccccc23)c1 [Example 199, 2-(3-(3-(2,4-Difluorophenyl)-4-oxo-3,4-dihydrophthalazin-1-yl)phenyl)acetic Acid] |
| 255.33 % activity | CC(C)(N)c1cccc(-c2nn(-c3ccc(F)cc3F)c(=O)c3ccccc23)c1.Cl [Example 200, 4-(3-(2-Aminopropan-2-yl)phenyl)-2-(2,4-difluorophenyl)phthalazin-1(2H)-one-hydrochloride] |
| 204.58 % activity | CC(C)(C(=O)O)c1cccc(-c2nn(-c3ccc(Cl)cc3F)c(=O)c3ccccc23)c1 [Example 201, 2-(3-(3-(4-Chloro-2-fluorophenyl)-4-oxo-3,4-dihydrophthalazin-1-yl)phenyl)-2-methylpropanoic Acid] |
| 261.73 % activity | Cl.N[C@@H]1CCCCN(c2nn(-c3ccc(Cl)cc3F)c(=O)c3ccccc23)C1 [Example 202, (R)-4-(3-Aminoazepan-1-yl)-2-(4-chloro-2-fluorophenyl)phthalazin-1-(2H)-one-hydrochloride] |
| 109.84 % activity | N#CC1CCCCN(c2nn(-c3ccc(Cl)cc3F)c(=O)c3ccccc23)C1 (stereo not drawn) [Example 203, 1-(3-(4-Chloro-2-fluorophenyl)-4-oxo-3,4-dihydrophthalazin-1-yl)azepane-3-carbonitrile] |
| 161.50 % activity | CC(C)(CN)c1cccc(-c2nn(-c3ccc(F)cc3F)c(=O)c3ccccc23)c1.Cl [Example 204, 4-(3-(1-Amino-2-methylpropan-2-yl)phenyl)-2-(2,4-difluorophenyl)phthalazin-1(2H)-one-hydro Chloride] |
| 182.70 % activity | CC(C)(C(=O)O)c1cccc(-c2nn(-c3ccc(C4CC4)cc3)c(=O)c3ccccc23)c1 [Example 206, 2-(3-(3-(4-Cyclopropylphenyl)-4-oxo-3,4-dihydrophthalazin-1-yl)phenyl)-2-methylpropanoic Acid] |
| 309.90 % activity | O=C(O)C1(c2cccc(-c3nn(-c4ccc(F)cc4F)c(=O)c4ccccc34)c2)CCC1 [Example 207, 1-(3-(3-(2,4-Difluorophenyl)-4-oxo-3,4-dihydrophthalazin-1-yl)phenyl)cyclobutane-1-carboxylic Acid] |
| 117.30 % activity | O=C(O)C1(c2cccc(-c3nn(-c4ccc(F)cc4F)c(=O)c4ccccc34)c2)CCCC1 [Example 208, 1-(3-(3-(2,4-Difluorophenyl)-4-oxo-3,4-dihydrophthalazin-1-yl)phenyl)cyclopentane-1-carboxylic Acid] |
| 169.10 % activity | CC(C)(C(=O)O)C1CCCN(c2nn(-c3ccc(Cl)cc3)c(=O)c3ccccc23)C1 (stereo not drawn) [Example 209, 2-(1-(3-(4-Chlorophenyl)-4-oxo-3,4-dihydrophthalazin-1-yl)piperidin-3-yl)-2-methylpropanoic Acid] |
| 170.00 % activity | COC(=O)C1(C2CCCN(c3nn(-c4ccc(F)cc4F)c(=O)c4ccccc34)C2)CC1 (stereo not drawn) [Example 211, Methyl 1-(1-(3-(2,4-difluorophenyl)-4-oxo-3,4-dihydrophthalazin-1-yl)piperidin-3-yl)cyclopropan-1-carboxylate] |
| 233.90 % activity | O=c1c2ccccc2c(-c2cccc(S(=O)(=O)N3CCCC3)c2)nn1-c1ccc(F)cc1F [Example 214, 2-(2,4-Difluorophenyl)-4-(3-(pyrrolidin-1-ylsulfonyl)phenyl)phthalazin-1(2H)-one] |
| 184.80 % activity | CCN(C)S(=O)(=O)c1cccc(-c2nn(-c3ccc(F)cc3F)c(=O)c3ccccc23)c1 [Example 216, 3-(3-(2,4-Difluorophenyl)-4-oxo-3,4-dihydrophthalazin-1-yl)-N-ethyl-N-methylbenzenesulfonamide] |

| Structure (SMILES) | Sirt6 Activity (% activity, 10 μM) |
| --- | --- |
| CC(C)(C(=O)NCCO)c1cccc(-c2nn(-c3ccc(F)cc3F)c(=O)c3ccccc23)c1 [Example 186, 2-(3-(3-(2,4-Difluorophenyl)-4-oxo-3,4-dihydrophthalazin-1-yl)phenyl)-N-(2-hydroxyethyl)-2-methyl Propanamide] | 305.80 % activity |
| Cl.O=c1c2ccccc2c(C2=CCNCC2)nn1-c1ccc(F)cc1F [Example 215, 2-(2,4-Difluorophenyl)-4-(1,2,3,6-tetrahydropyridin-4-yl)phthalazin-1(2H)-one-hydrochloride] | 226.60 % activity |

Same assay, conditions: compound at 10 μM; fluorescence relative to the group without compound treatment (positive control group); 10 µM

| Sirt6 Activity (% activity, 10 μM) | Structure (SMILES) |
| --- | --- |
| 105.70 % activity | CC(C)(C(=O)O)C1CCCN(c2nn(-c3ccc(F)cc3F)c(=O)c3ccccc23)C1 (stereo not drawn) [Example 205, 2-(1-(3-(2,4-Difluorophenyl)-4-oxo-3,4-dihydrophthalazin-1-yl)piperidin-3-yl)-2-methylpropanoic Acid] |
| 199.00 % activity | CC(C)(C(=O)O)C1CCCN(c2nn(-c3ccc(F)cc3F)c(=O)c3ccccc23)C1 (stereo not drawn) [Example 210-1, 2-(1-(3-(2,4-Difluorophenyl)-4-oxo-3,4-dihydrophthalazin-1-yl)piperidin-3-yl)-2-methylpropanoic Acid] |
| 100.50 % activity | CC(C)(C(=O)O)C1CCCN(c2nn(-c3ccc(F)cc3F)c(=O)c3ccccc23)C1 (stereo not drawn) [Example 210-2, 2-(1-(3-(2,4-Difluorophenyl)-4-oxo-3,4-dihydrophthalazin-1-yl)piperidin-3-yl)-2-methylpropanoic Acid] |
| 170.10 % activity | O=C(O)C1(C2CCCN(c3nn(-c4ccc(F)cc4F)c(=O)c4ccccc34)C2)CC1 (stereo not drawn) [Example 212, 1-(1-(3-(2,4-Difluorophenyl)-4-oxo-3,4-dihydrophthalazin-1-yl)piperidin-3-yl)cyclopropan-1-carboxylic Acid] |
| 168.10 % activity | O=C(O)C1(C2CCCN(c3nn(-c4ccc(F)cc4F)c(=O)c4ccccc34)C2)CC1 (stereo not drawn) [Example 213-1, 1-(1-(3-(2,4-Difluorophenyl)-4-oxo-3,4-dihydrophthalazin-1-yl)piperidin-3-yl)cyclopropan-1-carboxylic Acid] |
| 102.60 % activity | O=C(O)C1(C2CCCN(c3nn(-c4ccc(F)cc4F)c(=O)c4ccccc34)C2)CC1 (stereo not drawn) [Example 213-2, 1-(1-(3-(2,4-Difluorophenyl)-4-oxo-3,4-dihydrophthalazin-1-yl)piperidin-3-yl)cyclopropan-1-carboxylic Acid] |
